# Measurements from patent publication US20260256926A1, “BIFACIAL PEPTIDE NUCLEIC ACID PROBES AND METHODS OF USING THEREOF” (Ohio State Innovation Foundation, priority 2022, published 2026).
# Tests used:
# [1] = test system: duplex nucleic acid substrates bearing single abasic, single NCP, and tandem NCP sites; test: Fluorogenic probe library screen, overall; assay type: binding; conditions: 2 μM probe, 2 μM duplex
# Description: (§1) Fluorescence Measurements. Samples for screening were prepared as solutions with 50 mM HEPES (pH 7.5), 100 mM NaCl, 2 μM dsDNA/dsRNA, 2 μM probe (4 μM probe with tandem mismatch). Prior to use, nucleic acids were annealed (95° C./5 min, slow cool to RT over 2 h) to pre-form the duplex. Prepared samples were incubated at room temperature for 30 min before measuring fluorescence (Thermo Fisher Nanodrop 3300, excitation/emission=470/522 nm). For each measurement, 2 μl of sample was applied to the center of the nanodrop probe. All fluorescence values are the average of triplicate measurements, starting from fresh sample preparation. Error bars indicate standard deviation. The relative intensity (turn-on) was calculated using the equation below.
# [2] = test system: tandem NCP sites (2×2 internal bulges) in dsRNA; test: Tandem NCP RNA library screen; assay type: binding; conditions: 4 μM probe, 2 μM RNA duplex
# Description: as §1
# [3] = cited from earlier work
# [4] = parent dye free in solution; cited from earlier work
compound,measurement,setting,value
Oc1nc(O)nc(O)n1 [CA],binding in the abasic or single NCP screens,[1],did not show any binding
same,targeting of AG/CU internal bulge,[2],could be targeted
Nc1nc(=O)[nH]c(=O)[nH]1 [ammelide],pKa,[3],~ 6.9
O=c1[nH]c(=O)[nH]c(=O)[nH]1 [cyanuric acid],pKa,[3],~ 6.9
CN1C(=Cc2cc[n+](C)c3ccccc23)Sc2ccccc21 [thiazole orange],quantum yield in solution,[4],~ 10^−4
